# Measured values taken from US20250075155A1, “Use of Vanillyl Ethers to Modify Flavor of Distilled Spirits” (Firmenich Incorporated, priority 2021, published 2025).
# Assay: Sensory testing of unaged grain neutral spirit with vs without VEE (qualitative, taste testers)
# Experimental: (§1) Sensory testing was performed comparing two samples of unaged grain neutral spirit (20% alcohol by volume), where one sample contained no vanillyl ether compounds and the other sample contained 4-(ethoxy methyl)-2-methoxyphenol (vanillyl ethyl ether or VEE) at a concentration of 5 ppm. The taste testers were asked to describe the differences between the two samples on a qualitative basis.
# as §1, with “4-(ethoxymethyl)-2-methoxyphenol” for “4-(ethoxy methyl)-2-methoxyphenol”, “25” for “5”
# [1] = VEE 5 ppm in unaged grain neutral spirit (20% ABV), relative to control sample
# [2] = VEE 25 ppm in unaged grain neutral spirit (20% ABV), relative to control sample
structure (smiles),measurement,setting,value
"CCOCc1ccc(O)c(OC)c1 [VEE, 4-(ethoxymethyl)-2-methoxyphenol]",Bitterness,[1],All taste testers identified the test sample as having a less bitter
same,Overall Taste,[1],All taste testers identified the test sample as having a better overall
same,Smoothness/Balance/Roundness,[1],All taste testers identified the test sample as having greater
same,Smoothness/Balance/Roundness: taste characteristic of an aged spirit,[1],test sample as having a taste more characteristic of an aged spirit.
same,Sweetness,[1],sweeter taste.
same,Smell,"VEE 5 ppm in unaged grain neutral spirit (20% alcohol by volume), relative to control sample without vanillyl ether",sample (containing VEE) as having a slight rum-like smell relative
same,Bitterness,[2],All taste testers identified the test sample as having a less bitter
same,Overall Taste,[2],All taste testers identified the test sample as having a better
same,Smoothness/Balance/Roundness,[2],All taste testers identified the test sample as having greater
same,Sweetness,[2],sweeter taste.
same,Tingling/Heat,[2],increased tingling/hot perception very similar to ethanol profile
same,Tingling/Heat: alcohol perception,[2],while significantly increasing the alcohol perception; taste like
